Earlier results, collected in patent publication US20200352905A1, “6-(2,4-DICHLOROPHENYL)-5-[4-[(3S)-1-(3-FLUOROPROPYL)PYRROLIDIN-3-YL]OXYPHENYL]-8,9-DIHYDRO-7H-BENZO[7]ANNULENE-2-CARBOXYLIC ACID FOR USE IN METASTATIC OR ADVANCED BREAST CANCER PATIENTS” (SANOFI, priority 2019, published 2020).
Read-outs that look alike come from different tables or passages of the source.

Tests used:
CYP3A [1] = details: cited from earlier work
CYP3A [2] = details: cited from earlier work; remark: listed apart in the source
CYP2C8 = details: cited from earlier work
advanced breast cancer = details: prior CDK4/6, mTOR, fulvestrant not allowed, cited from earlier work
[3] = victim Sildenafil, 62.5-125 mg BID 8 weeks
[4] = moderate CYP3A inhibitors, victim midazolam (oral)
[5] = strong CYP3A inhibitors, victim midazolam (oral)
[6] = victim Verapamil, 100 mg QD 21 days
[7] = victim Quetiapine, 200 mg TID (26 days)
[8] = victim Indinavir, 500 mg TID 14 days
[9] = EFECT trial 2003-2005, fulvestrant single agent arm, n=270, setting 2L+
[10] = PALOMA-3 trial 2013-2014, fulvestrant single agent arm, n=138, setting 2L+
[11] = SANDPIPER trial 2015-2017, fulvestrant single agent arm, n=134, setting 2L+
[12] = SoFEA trial 2004-2010, fulvestrant single agent arm, n=178, setting 2L+
[13] = victim Midazolam, 1000 mg BID (14 days)
[14] = victim Nifedipine, 500 mg 4 times daily 5 days
[15] = victim Midazolam, 140 mg QD (10 days)
[16] = victim Triazolam, 200-400 mg QD 28 days
[17] = victim Midazolam, 1000 mg QD (14 days)

COc1ccccc1Oc1c(NS(=O)(=O)c2ccc(C(C)(C)C)cc2)nc(-c2ncccn2)nc1OCCO [Bosentan]
% of AUC decrease (CYP3A [1]; [3]): 69%
% oral CL increase (CYP3A [1]; [3]): 239.8%

CC(=O)N1CCN([C@H]2CCN(C(=O)N(C)[C@H](C)c3cc(C(F)(F)F)cc(C(F)(F)F)c3)[C@@H](c3ccc(F)cc3C)C2)CC1 [casopitant]
AUC Ratio (CYP3A [2]; [4]): 3.13

CC[C@H]1OC(=O)[C@H](C)[C@@H](O[C@H]2C[C@@](C)(OC)[C@@H](O)[C@H](C)O2)[C@H](C)[C@@H](O[C@@H]2O[C@H](C)C[C@H](N(C)C)[C@H]2O)[C@](C)(OC)C[C@@H](C)C(=O)[C@H](C)[C@@H](O)[C@]1(C)O [Clarithromycin]
AUC Ratio (CYP3A [2]; [5]): 8.39

CN[C@@H](C)C(=O)N[C@H](C(=O)N1CCC[C@H]1c1nc(C(=O)c2ccc(F)cc2)cs1)C1CCCCC1 [LCL 161]
AUC Ratio (CYP3A [2]; [5]): 8.80

Cc1nc2c([nH]1)-c1ccccc1N(C(=O)c1ccc(NC(=O)c3ccccc3-c3ccccc3)cc1)CC2 [Conivaptan]
AUC Ratio (CYP3A [2]; [5]): 5.76

C[C@@H](c1nc(-c2ccc(C#N)cc2)cs1)[C@](O)(Cn1cncn1)c1cc(F)ccc1F [isavuconazole]
AUC Ratio (CYP3A [2]; [4]): 2.03

CCC1(c2ccccc2)C(=O)NC(=O)NC1=O [Phenobarbital]
% of AUC decrease (CYP3A [1]; [6]): 76.6%
% oral CL increase (CYP3A [1]; [6]): 400.9%

Cc1cc(C#N)cc(C)c1Oc1nc(Nc2ccc(C#N)cc2)nc(N)c1Br [Etravirine]
% of AUC decrease (CYP3A [1]; victim Sildenafil, 800 mg BID 13.5 days): 56.7%

NC(=O)N1c2ccccc2C=Cc2ccccc21 [Carbamazepine]
Max % of AUC decrease or CL increase (CYP2C8; substrate dasabuvir, 200 mg QD (3 days) then BID (21 days)): 70.3%
% of AUC decrease (CYP3A [1]; [7]): 86.6%
% oral CL increase (CYP3A [1]; [7]): 643.1%

COc1ccc2c(c1)N(C(=O)OC(C)C)[C@@H](CSC)C(=S)N2 [Talviraline]
% of AUC decrease (CYP3A [1]; [8]): 61.7%
% oral CL increase (CYP3A [1]; [8]): 181.2%

C[C@]12CC[C@@H]3c4ccc(O)cc4C[C@@H](CCCCCCCCC[S+]([O-])CCCC(F)(F)C(F)(F)F)[C@H]3[C@@H]1CC[C@@H]2O (stereo partly drawn) [fulvestrant]
CBR (advanced breast cancer; [9]): 32.2%
ORR (advanced breast cancer; [9]): 7.4%
CBR (advanced breast cancer; [10]): 36%
ORR (advanced breast cancer; [10]): 11%
CBR (advanced breast cancer; [11]): 37.3%
ORR (advanced breast cancer; [11]): 11.9%
CBR (advanced breast cancer; [12]): 31%
ORR (advanced breast cancer; [12]): 8%

CC[C@H](Nc1ncnc2[nH]cnc12)c1nc2cccc(F)c2c(=O)n1-c1ccccc1 [Idelalisib]
AUC Ratio (CYP3A [2]; [5]): 5.15

C[C@@H](O[C@H]1OCCN(Cc2n[nH]c(=O)[nH]2)[C@H]1c1ccc(F)cc1)c1cc(C(F)(F)F)cc(C(F)(F)F)c1 [aprepitant]
AUC Ratio (CYP3A [2]; [4]): 3.29

O=C1NC(=O)C(c2ccccc2)(c2ccccc2)N1 [Phenytoin]
% of AUC decrease (CYP3A [1]; victim Nisoldipine, 200-450 mg/day (chronic treatment)): 89.5%

CCC(C)n1ncn(-c2ccc(N3CCN(c4ccc(OCC5COC(Cn6cncn6)(c6ccc(Cl)cc6Cl)O5)cc4)CC3)cc2)c1=O (stereo not drawn) [Itraconazole]
AUC Ratio (CYP3A [2]; [5]): 10.80

CCc1nn(CCO)c(CC)c1Oc1cc(C#N)cc(C#N)c1 [Lersivirine]
% of AUC decrease (CYP3A [1]; [13]): 51.4%
% oral CL increase (CYP3A [1]; [13]): 105.5%

CC[C@H]1OC(=O)[C@H](C)C(=O)[C@H](C)[C@@H](O[C@@H]2O[C@H](C)C[C@H](N(C)C)[C@H]2O)[C@](C)(OC)C[C@@H](C)C(=O)[C@H](C)[C@H]2N(CCCCn3cnc(-c4cccnc4)c3)C(=O)O[C@]12C [Telithromycin]
AUC Ratio (CYP3A [2]; [5]): 6.2

CCC1C(C)=NN=C(c2ccc(OC)c(OC)c2)c2cc(OC)c(OC)cc21 (stereo not drawn) [tofisopam]
AUC Ratio (CYP3A [2]; [4]): 2.36

COCCc1ccc(Cl)c(CN(C(=O)[C@H]2CNCC[C@@H]2c2ccc(OCCOc3c(Cl)cc(C)cc3Cl)nc2)C2CC2)c1 [ACT-178882]
AUC Ratio (CYP3A [2]; [4]): 2.19

CC[C@@H]([C@H](C)O)n1ncn(-c2ccc(N3CCN(c4ccc(OC[C@@H]5CO[C@@](Cn6cncn6)(c6ccc(F)cc6F)C5)cc4)CC3)cc2)c1=O [Posaconazole]
AUC Ratio (CYP3A [2]; [5]): 6.23

CO[C@H]1/C=C/O[C@@]2(C)Oc3c(C)c(O)c4c(O)c(c(/C=N/N5CCN(C)CC5)c(O)c4c3C2=O)NC(=O)/C(C)=C\C=C\[C@H](C)[C@H](O)[C@@H](C)[C@@H](O)[C@@H](C)[C@H](OC(C)=O)[C@@H]1C [Rifampin]
Max % of AUC decrease or CL increase (CYP2C8; substrate pioglitazone, 600 mg QD (6 days)): 53.8%
Max % of AUC decrease or CL increase (CYP2C8; substrate repaglinide, 600 mg QD (7 days)): 79.6%
Max % of AUC decrease or CL increase (CYP2C8; substrate rosiglitazone, 600 mg QD (6 days)): 66.4%

CCCCc1oc2ccc(NS(C)(=O)=O)cc2c1C(=O)c1ccc(OCCCN(CCCC)CCCC)cc1 [Dronedarone]
AUC Ratio (CYP3A [2]; moderate CYP3A inhibitors, victim simvastatin): 3.66

O=C1Nc2ccc(Cl)cc2[C@@](C#CC2CC2)(C(F)(F)F)O1 [Efavirenz]
% of AUC decrease (CYP3A [1]; victim Simvastatin acid, 600 mg QD 28 days): 60.4%

Clc1ccc(C(c2ccccc2Cl)C(Cl)Cl)cc1 (stereo not drawn) [Mitotane]
% of AUC decrease (CYP3A [1]; victim Midazolam, Maximum of 3.5 g TID (chronic therapy)): 94.5%

CNC(=O)c1ccc(N2C(=S)N(c3ccc(C#N)c(C(F)(F)F)c3)C(=O)C2(C)C)cc1F [Enzalutamide]
% of AUC decrease (CYP3A [1]; victim Midazolam, 160 mg QD (85 ± 3 days)): 85.9%

Cc1cn(-c2cc(NC(=O)c3ccc(C)c(Nc4nccc(-c5cccnc5)n4)c3)cc(C(F)(F)F)c2)cn1 [nilotinib]
AUC Ratio (CYP3A [2]; [4]): 2.40

CO[C@H]1/C=C/O[C@@]2(C)Oc3c(C)c(O)c4c(c3C2=O)C2=NC3(CCN(CC(C)C)CC3)NC2=C(NC(=O)/C(C)=C\C=C\[C@H](C)[C@H](O)[C@@H](C)[C@@H](O)[C@@H](C)[C@H](OC(C)=O)[C@@H]1C)C4=O [Rifabutin]
% oral CL increase (CYP3A [1]; victim Delavirdine, 300 mg QD 14 days): 458.0%

CC(C)CN(C[C@@H](O)[C@H](Cc1ccccc1)NC(=O)O[C@H]1CCOC1)S(=O)(=O)c1ccc(N)cc1 [amprenavir]
AUC Ratio (CYP3A [2]; in vivo): 2.93

OC(Cn1cncn1)(Cn1cncn1)c1ccc(F)cc1F [Fluconazole]
AUC Ratio (CYP3A [2]; [4]): 4.93

CCOc1ccc2ccccc2c1C(=O)N[C@@H]1C(=O)N2[C@@H]1SC(C)(C)[C@@H]2C(=O)O [Naficillin]
% of AUC decrease (CYP3A [1]; [14]): 62.6%
% oral CL increase (CYP3A [1]; [14]): 145.1%

CC(C)[C@H](O)C(=O)N[C@@H](C)C(=O)N[C@@H]1C(=O)N(C)CCc2ccccc21 [Semagacestat]
% of AUC decrease (CYP3A [1]; [15]): 76.4%
% oral CL increase (CYP3A [1]; [15]): 324.6%

CCc1nn(CCCN2CCN(c3cccc(Cl)c3)CC2)c(=O)n1CCOc1ccccc1 [Nefazodone]
AUC Ratio (CYP3A [2]; [5]): 5.44

NC(=O)C[S+]([O-])C(c1ccccc1)c1ccccc1 (stereo not drawn) [Modafinil]
% of AUC decrease (CYP3A [1]; [16]): 57.6%
% oral CL increase (CYP3A [1]; [16]): 35.7%

CCC[C@H](NC(=O)[C@@H]1[C@H]2CCC[C@H]2CN1C(=O)[C@@H](NC(=O)[C@@H](NC(=O)c1cnccn1)C1CCCCC1)C(C)(C)C)C(=O)C(=O)NC1CC1 [Telaprevir]
AUC Ratio (CYP3A [2]; [5]): 13.5

COC(=O)N[C@H](C(=O)N[C@@H](Cc1ccccc1)[C@@H](O)CN(Cc1ccc(-c2ccccn2)cc1)NC(=O)[C@@H](NC(=O)OC)C(C)(C)C)C(C)(C)C [atazanavir]
AUC Ratio (CYP3A [2]; moderate CYP3A inhibitors, victim maraviroc): 3.57

Cc1ccccc1-c1cc(N2CCN(C)CC2)ncc1N(C)C(=O)C(C)(C)c1cc(C(F)(F)F)cc(C(F)(F)F)c1 [netupitant]
AUC Ratio (CYP3A [2]; [4]): 2.44

CC(C)(C)NC(=O)[C@@H]1C[C@@H]2CCCC[C@@H]2CN1C[C@@H](O)[C@H](Cc1ccccc1)NC(=O)[C@H](CC(N)=O)NC(=O)c1ccc2ccccc2n1 [Saquinavir]
AUC Ratio (CYP3A [2]; [5]): 5.18

O=c1c(-c2ccc(O)cc2)coc2cc(O)cc(O)c12 [Genistein]
% of AUC decrease (CYP3A [1]; [17]): 13.7%
% oral CL increase (CYP3A [1]; [17]): 136.9%

CC(C)(C)NC(=O)N[C@H](C(=O)N1C[C@H]2[C@@H]([C@H]1C(=O)NC(CC1CCC1)C(=O)C(N)=O)C2(C)C)C(C)(C)C (stereo partly drawn) [Boceprevir]
AUC Ratio (CYP3A [2]; [5]): 5.05

Cc1c(O)cccc1C(=O)N[C@@H](CSc1ccccc1)[C@H](O)CN1C[C@H]2CCCC[C@H]2C[C@H]1C(=O)NC(C)(C)C [Nelfinavir]
AUC Ratio (CYP3A [2]; [5]): 5.29

CC(C)c1cc(C(C)C)c(CC(=O)NS(=O)(=O)Oc2c(C(C)C)cccc2C(C)C)c(C(C)C)c1 [Avasimibe]
% of AUC decrease (CYP3A [1]; victim Midazolam, 750 mg/day (7 days)): 93.5%

CC(=O)N1CCN(c2ccc(OCC3COC(Cn4ccnc4)(c4ccc(Cl)cc4Cl)O3)cc2)CC1 (stereo not drawn) [Ketoconazole]
AUC Ratio (CYP3A [2]; in vivo, po): 15.90

COCC(=O)O[C@]1(CCN(C)CCCc2nc3ccccc3[nH]2)CCc2cc(F)ccc2[C@@H]1C(C)C [Mibefradil]
AUC Ratio (CYP3A [2]; [5]): 8.86

N#Cc1ccnc(N2C(=O)CC[C@H]2C(=O)N(c2cncc(F)c2)[C@H](C(=O)NC2CC(F)(F)C2)c2ccccc2Cl)c1 [ivosidenib]
Max % of AUC decrease or CL increase (CYP2C8; substrate repaglinide, 1200 mg QD (19 days), PBPK): 59.0 (PBPK) %
